Data on 89 compounds can be found in a melting point compilation (Tetko et al.; mined from patent text by program, amines drawn as free bases though some values may be those of a salt).

As usually defined, the melting point is the temperature, or range, at which the solid turns liquid.

A value given as a limit tells only on which side of the number the result lay.

For `Cn1nnnc1CN1CCC[C@@H](OCc2cc(C(F)(F)F)cc(C(F)(F)F)c2)[C@H]1c1ccccc1` (relative stereo), the melting point lay within 75 to 77 °C.

Regarding `Fc1ccc(Cn2c(NC3CCN(CCn4c(=S)[nH]c5ccccc54)CC3)nc3ccccc32)cc1`, the melting point is 235 °C.

On to `COc1cc(SC)c(C)cc1OCCBr`, for which the melting point is 66 to 67 °C.

`CCOC(=O)C1(Cc2ccc(OC)cc2)CCCC1` returned a melting point of 63.5 to 64.5 °C.

Consider `Cc1ccccc1-c1nc2n(c1Br)-c1cccnc1Nc1ccccc1-2`, for which the melting point lay in the range of 220 to 222 °C.

With `O=C(Nc1ccc(C(F)(F)F)cc1)[C@H]1[C@H](c2ccccc2)C12CCCC2` (relative stereo), the melting point was 171 to 173 °C.

Compound `CCCN(CCC)S(=O)(=O)c1cc(C(=O)CCl)ccc1Cl` gave a melting point of 76 °C.

In turn, `O=C(O)c1cc(Br)cc2c1NCCS2(=O)=O` returned a melting point of 250 to 251 °C.

Regarding `Cc1cccc(COCC2OC(n3cc(C(F)(F)F)c(=O)[nH]c3=O)CC2O)c1` (centres undefined), the melting point is 169 to 171 °C.

`CS(=O)(=O)Oc1ccccc1S(=O)(=O)Cl` yielded a melting point of 94 to 95 °C.

`CC=CC=NNC(=O)c1cnccn1` had a melting point of 192 to 194 °C.

Consider `CC(C)=NNc1cc2c(nn1)CCN(C(=O)c1ccc(Cl)cc1Cl)C2`, for which the melting point was in the range of 211 to 214 °C.

As for `O=[N+]([O-])c1cccc(-c2cccc([N+](=O)[O-])n2)n1`, the melting point was in the range of 206 to 207 °C.

Turning to `COC(=O)Cc1ccc(-c2ccc(F)cc2F)c(F)c1`, the melting point lay in the range of 74 to 77 °C.

`CCN1C(=O)C(C)(C)C(=O)N(C)c2cc(CN(CCn3ccc4oc(C)cc4c3=O)Cc3ccccc3C=O)ccc21` yielded a melting point of 157 to 158 °C.

In turn, `Clc1ccc(Cn2cnc3c(-c4ccco4)ncnc32)cc1` returned a melting point of 156 to 159 °C.

Regarding `CCCOCc1cc2cc(-c3ccc4c(c3)C=C(C(=O)Nc3ccc(CN(C)C5CCOCC5)cc3)CCS4(=O)=O)ccc2o1`, the melting point was 204 to 206 °C.

Regarding `O=C(O)c1cc(=O)cc(-c2ccc(OCc3ccccc3)cc2)o1`, the melting point was determined as 235 °C.

`CC(=O)CN1CCN(c2cc3c(cc2F)c(=O)c(C(=O)O)c2n3C(C)S2)CC1` (centres undefined) showed a melting point of 215 to 218 °C.

`FC(F)Oc1ccc(C2=NNCC2n2cc(Cl)cn2)cc1` (centres undefined) came in with a melting point of 93 °C.

`COC(=O)Cc1cc(OC)ccc1OCc1ccc(OCc2nc(-c3ccccc3)oc2C)cc1` registered a melting point of 160 to 161 °C.

On to `CCOC(=O)C(=O)c1cn(CCNC(=O)OC(C)(C)C)c2ccccc12`, for which the melting point was 114 to 115 °C.

In the case of `COC(=O)c1cc2cc(COc3cccnc3)ccc2s1`, the melting point was in the range of 106 to 107 °C.

For the compound `CCOC(=O)c1cc2c(F)cccc2[nH]c1=O`, the melting point is 180 °C.

In turn, `CCOC(=O)CN(Cc1ccccc1)C(=S)CCc1nc2c(F)c(F)cc(F)c2s1` gave a melting point of 86 to 88 °C.

The compound `CCCC[C@H](NC(=O)[C@H](CC(C)C)NC(=O)c1ccc(C(F)(F)F)cc1)C(=O)CSCc1ccco1` showed a melting point of 121 to 123 °C.

`CC(C)(C)c1nc2cc(N3CCCCC3)c(N)cc2s1`: the melting point lay in the range of 172 to 175 °C.

In turn, `COc1ccc(CCNc2c(-c3ccc(S(C)(=O)=O)cc3)cnn(CC(F)(F)F)c2=O)cc1OC` returned a melting point of 163 to 165 °C.

`Cc1nnc2n1-c1sc(Cc3ccccc3)cc1C(c1ccccc1Cl)=NC2`: the melting point was 161 to 163 °C.

In turn, `NC(=O)NN=Cc1ccc(Cc2ccccc2)cc1` gave a melting point of 118 to 120 °C.

With `CC(=O)NCc1ccc(CN2CCN(c3cnccn3)CC2)cc1`, the melting point was in the range of 118 to 119 °C.

In turn, `CCOc1ccc(NCc2ccc(N(C)C)cc2)cc1` gave a melting point of 98 to 99 °C.

In the case of `CCCCOC(=O)c1ccc2nc(N)[nH]c2c1`, the melting point lay in the range of 183 to 185 °C.

As for `CC(C)(COc1ccc(-n2cc(C(=O)O)cn2)cc1C#N)C(=O)O`, the melting point lay in the range of 230 to 233 °C.

`CC=CCN1C(=O)c2ccccc2Oc2ncccc21`: the melting point was in the range of 79 to 81 °C.

On to `CN(C)CCCn1cc(C(=O)NCc2ccc(Cl)cc2)c(=O)c2cc(C#CCO)ccc21`, for which the melting point lay within 172 to 175 °C.

As for `CC(=O)Nc1ccc(S(=O)c2ccc(Cl)cc2)cc1` (centres undefined), the melting point lay in the range of 160 to 162 °C.

`O=C(/C=C/c1cccc(S(=O)(=O)N2CCN(c3ncccn3)CC2)c1)NO` gave a melting point of 200 °C.

Turning to `CC(C)C[C@H](NC(=O)[C@H](CC(C)C)N[C@H](CC(C)C)C(=O)OCc1ccccc1)C(=O)N[C@@H](C)C(N)=O`, the melting point fell in the range of 133 to 134 °C.

Compound `N#CC1=C(C#N)N=CCC=N1` displayed a melting point of 189 to 190 °C.

Turning to `CCC(CCSc1cc(OC)c(O)c(OC)c1)(c1cccs1)N(C)C` (centres undefined), the melting point lay within 78 to 80 °C.

Regarding `Fc1ccc2cc(C3CCNCC3)sc2c1`, the melting point was in the range of 115 to 120 °C.

Compound `CCOC(=O)NNC(=O)Nc1c(F)c(F)c(F)c(F)c1F` yielded a melting point of 180 to 182 °C.

With `CCN1CCN(C2=Nc3cc(Cl)ccc3Oc3ccccc32)CC1`, the melting point fell in the range of 100 to 101 °C.

For `C=CCN(CC=C)c1nc(NC(=O)c2c(Cl)cccc2Cl)n2oc(=O)nc2n1`, the melting point was in the range of 133 to 135 °C.

Regarding `CCNCC1CCN(c2c(F)cc3c(=O)c(C(=O)O)cn(C4CC4C)c3c2F)C1` (centres undefined), the melting point was 225 to 228 °C.

In turn, `CCCCCCn1c2ccccc2c2ccc(CO)cc21` came in with a melting point of 54 to 55 °C.

The compound `CCCNS(=O)(=O)c1cc2cc(P(=O)(OCC)OCC)c(=O)[nH]c2cc1Cl` registered a melting point of over 300 °C.

Take `CC(=O)c1ccc(Cl)c(S(=O)(=O)N(C)C)c1`: the melting point stood at 108 °C.

On to `COc1cc(-c2nc3ccccc3n2Cc2ccc(C)cc2)cc(OC)c1OC`, for which the melting point turned out to be 84.5 °C.

`Fc1ccc2c(c1)Cc1cc(F)ccc1O2` showed a melting point of 117 to 118 °C.

As for `CCCC[Si](C)(C)CCCSCCCNC(=O)n1cc(F)c(=O)[nH]c1=O`, the melting point lay in the range of 71 to 72 °C.

`O=C1NCCN(N=Cc2ccccc2)C1=O` yielded a melting point of 231 to 234 °C.

`O=[N+]([O-])c1ccc(C2SCCS2)cc1` returned a melting point of 80 to 82 °C.

Turning to `CCN(CC)c1ccc(/C=C/C(=O)CC(=O)/C=C/c2ccc3cc[nH]c3c2)c(OC)c1`, the melting point was 61 to 65 °C.

On to `O=C1CCC2(CC1)CCC(O)CC2`, for which the melting point was 65 to 67 °C.

Regarding `COc1ccc(-c2cc(-c3sc(N)nc3-c3cccc(C)n3)ccn2)cc1`, the melting point was in the range of 188 to 190 °C.

On to `CN(c1ccccc1)c1nc(Cl)c([N+](=O)[O-])s1`, for which the melting point is 136 to 137 °C.

`Cc1csc(C2CCN(CCCC(O)c3ccc(F)cc3)CC2)n1` (centres undefined) displayed a melting point of 98 to 99 °C.

For the compound `CC(C)(C)C(C)(C)Nc1nc(NC(C)(C)C(C)(C)C)nc(N2CC3CCC(CC3)C2)n1`, the melting point lay in the range of 282 to 284 °C.

As for `COc1ccc(F)cc1C(=O)NC1Cc2cc(S(=O)(=O)NC(=S)NC(C)C)c(OC)cc2OC1(C)C` (centres undefined), the melting point was 156 to 157 °C.

`Cc1nc(C(=O)Nc2ccc3[nH]cc(C4CCN(C)CC4)c3n2)c(C)s1` gave a melting point of 125 to 126 °C.

`Cc1cccc(NC(=O)NCC(=O)N(CC(=O)N2CCCc3ccccc32)c2ccccc2)c1` registered a melting point of 167 °C.

Compound `OCCNc1nc(Cl)nc2cccc(Br)c12` gave a melting point of 165 to 167 °C.

Take `Cn1c(C(=O)N[C@H]2CCCC[C@H]2C(=O)N[C@H](C#N)CO)cc2ccccc21`: the melting point lay in the range of 78.4 to 79 °C.

As to `COc1ccc2c(c1)c(SC)c(C(=O)O)n2C`, the melting point was determined as 165 °C.

Regarding `COc1cc(COc2cc(/C=C/c3ccccn3)n(-c3ccccc3)n2)ccc1OCc1nc(-c2ccco2)oc1C`, the melting point lay in the range of 122 to 123 °C.

Compound `COCOc1cc(F)ccc1-c1cc(-c2cccc(NC(=O)CCN(C)C(=O)OC(C)(C)C)c2)c(C#N)c(NC(=O)c2ccco2)n1` had a melting point of 172 to 174 °C.

Consider `O=C(Cc1ccccc1)Nc1cnc(-c2ccccc2)nc1Cl`, for which the melting point came out at 169 °C.

`CN(C)CCCCC(N)=O` registered a melting point of 86 to 87 °C.

Regarding `CC(C)S(=O)(=O)c1cc(O)c(N)c(C#N)c1`, the melting point was 166 to 167 °C.

On to `NC(=O)CC1(c2ccccc2)C(=O)Nc2ccccc21` (centres undefined), for which the melting point is 184 to 185 °C.

Take `CC#Cc1ccc(NC(=O)c2ccccc2NCc2ccncc2)cc1C(F)(F)F`: the melting point lay within 165 to 166 °C.

In turn, `O=C(O)CCCCN1C(=O)NC(=O)C1(c1ccccc1)c1ccccc1` returned a melting point of 207 °C.

`COc1ccc(S)c(-n2c(=O)[nH]cc(C(=O)O)c2=O)c1` had a melting point of 277 to 278 °C.

`Cc1ccc(-n2nc(O)c3[nH]c4cc(Cl)ccc4c(=O)c3c2=O)cc1`: the melting point fell in the range of 368 to 370 °C.

Regarding `C=CCOC(=O)C1=C2CCSC[C@@H]2[C@@H]2/C(=C\C)C(=O)N12`, the melting point lay within 195 to 225 °C.

`COc1ccccc1-c1oc2cccc3c2c1C=CC3=O` had a melting point of 144 °C.

Compound `CC(=O)Nc1sc2c(c1C(=O)c1ccccc1)CCCC2` had a melting point of 116 to 119 °C.

Compound `Cc1cc2n(C)c(=O)c3cnc4c(cnn4C)c3n2n1` registered a melting point of 178 to 180 °C.

Turning to `O=C(c1ccc([N+](=O)[O-])c(OCc2ccc(-c3ccccc3-c3nnnn3C(c3ccccc3)(c3ccccc3)c3ccccc3)cc2)c1)N1CCOCC1`, the melting point lay within 188 to 190 °C.

In turn, `CC(C)(C)c1ccc(CCCO)cc1NC(=O)CC1c2ccccc2Oc2ccccc21` came in with a melting point of 185 to 186 °C.

In turn, `C1=CN(Cc2ccccc2)CCC1c1cc2ccccc2o1` (centres undefined) showed a melting point of 139 to 140 °C.

Compound `CCn1ncc2c3noc(-c4ccc(OC)cc4)c3cnc21` had a melting point of 215 to 216 °C.

For `CCC1=C(C(=O)O)C(C(F)(F)F)Oc2ccc(Cl)cc21` (centres undefined), the melting point is 171 to 172 °C.

For the compound `CCOC(=O)c1ccc(NCCOc2cccc3ccccc23)cc1`, the melting point was 124 to 127 °C.

The compound `CCCCCCNC1=NS(=O)(=O)c2cc(Cl)c(Cl)cc2N1` had a melting point of 282 to 286 °C.

Turning to `CC1(NC(=NC#N)Nc2cccnc2)CCC1`, the melting point lay in the range of 210 to 212 °C.

`CCOC(=O)c1[nH]c2cc(Cl)cc(Cl)c2c1NCC(=O)c1cccc(F)c1` registered a melting point of 234 to 235 °C.
